Measured values published in EP1379634B1 (THE UNIVERSITY OF GEORGIA RESEARCH FOUNDATION, INC., priority 2001, dated 2002).
Residues, ends and D or L forms follow the SMILES beside them. *: point of attachment. AFC = O=c1cc(C(F)(F)F)c2ccc(N*)cc2o1; MeOSuc = COC(=O)CCC(=O)*; Cbz = O=C(OCc1ccccc1)*; Boc = CC(C)(C)OC(=O)*

Assays:
[1] = test system: purified Taenia solium cysteine protease; assay: Competitor assay of low Vmax substrates (vehicles) against high Vmax substrate cocktails (Step III), purified protease; type: biochemical; conditions: vehicle 8X10^-6 M; for inhibition with the final cocktail (7.4%): 7.4% cocktail (five high Vmax substrates, 1X10^-6 M each); for V Value: V = P * M, P inhibition with first (1.4%) cocktail, M with last (7.4%) cocktail, each cocktail substrate 1X10^-6 M; for inhibition with the 1.4% cocktail: 1.4% cocktail (Z-FR-AFC 1X10^-6 M)
Method: The top 1.4% of substrates (out of 67) in the full panel of substrates with the highest Vmax values were chosen to compose a "TOP 1.4% cocktail". (We employed "Vmax" here although Kcat could also be used). Due to the lower number of substrates, a percentage was not chosen for the "BOTTOM %" substrates. Alternately, all substrates which were not cleaved as determined by a value of 10 uM/hr or less, were chosen to be tested in this step for competitive ability. Hereinafter the term "vehicle" will represent low Vmax substrates that were capable of inhibiting cleavage of the percent cocktails. In this instance, we tested for "vehicles" which inhibited cleavage of the TOP 1.4% cocktail (they were delivered into the active site). Based upon our results from Step II, the top 1.4% cocktail was composed of Z-Phe-Arg-AFC, the highest cleaved substrate.
The experiment began with a competitor test between the noncleaved low Vmax substrates and the highest Vmax substrate, Z-Phe-Arg-AFC. Concentrations were varied between the low Vmax substrate and Z-Phe-Arg-AFC, as described above under "refinement of assay" until a relative inhibition profile was obtained.
The mixture was allowed to equilibrate for a period of 30 minutes. Finally, active purified enzyme was added to the tubes at a concentration that was always 50 times less than the concentration of the high and low Vmax substrates, respectively, in order to insure saturation conditions. This concentration varied from purification to purification and the amount added depended upon the yield and specific activity of the purified protease.
Positive controls were set up in a manner similar to that described for test controls, except that solvent was added in substitution for the low Vmax substrate (in a volume equal to the low Vmax volume addition). All of the substrates could be dissolved in dimethylsulfoxide (DMSO), and therefore, this was the solvent of choice. Negative controls were set up by adding the low Vmax and the high Vmax substrate in a tube without the protease. All potential non-proteolytic induced liberation of AFC was therefore controlled for in this tube (a feature which also monitored stability of the AFC substrates, since these substrates will freely liberate AFC when unstable). A tube set was established for this negative control.
All controls were set up in triplicate, and experiments were repeated a minimum of five times. The assays were incubated at 37°C, for 18 hours overnight.
Percent inhibition was calculated as: %Inhibition = ((AFC positive for "Y"−AFC negative for "Y")−(AFC test−AFC negative for "Y"))/(AFC positive for "Y"−AFC negative for "Y") × 100 [formula]
A 2.9% cocktail of the high Vmax substrates was made. This was composed of Z-FR-AFC and the second most cleaved substrate, Z-FAR-AFC. The vehicles promoted from the initial screenings above were again tested for competitive inhibition ability with the new cocktails. Their concentrations were set identically to those which were "fixed" in the previous protocols. In other words, 8X10^-6 M of the vehicle was added to the culture tube with 1X10^-6 M of Z-FR-AFC and 1X10^-6 M of Z-FAR-AFC. Active protease was added last at a concentration that was 50 times less than the concentration of the high Vmax substrate (to ensure saturating conditions).
In similar experimental fashion, a 4.4%, 5.9%, and 7.4% cocktail were tested with each of the promising vehicles. Each increase in the percentage represented an increase by an additional high Vmax substrate. Each of the individual components in the cocktail were added at 1X10^-6 M each, to 8X10^-6 M of the vehicle. The composition of the cocktails was as follows: 4.4% cocktail: Z-FR-AFC, Z-FAR-AFC, and Z-AAK-AFC (third highest cleaved substrate); 5.9% cocktail: Z-FR-AFC, Z-FAR-AFC, Z-AAK-AFC, and AP-AFC (fourth highest cleaved substrate); 7.4% cocktail: […], Z-FAR-AFC, Z-AAK-AFC, AP-AFC, and Z-VLR-AFC. […]

Taenia solium crude mix = assay: Competitor assay of vehicles against high Vmax substrate cocktails (Step III), crude mix; type: biochemical
Description: Step III for a crude mix proceeds as it would for a purified protease, except that Vm is used instead of kcat.
One of the most intriguing findings in this experiment was that a highly similar inhibition pattern for the competitor assay resulted when the crude mix was employed as the source of the target protease. Although there were some variations in the effects of inhibitor dilution, the most highly ranked vehicles remained inhibitory consistently in comparison to the profile with the target protease. The relative profile and composition of the top tier of vehicles was identical. Z-LLL-AFC, Z-LLY-AFC, Mu-LY-AFC, Boc-VPR-AFC, Z-SY-AFC, Z-RR-AFC, Z-FLF-AFC, and Z-LGR-AFC consistently emerged as the top eight vehicles (Fig. 5b), respectively, based upon their V values (Table 2). […] It was notable that the three vehicles had very similar V values. […] As was mentioned, this vehicle along with Z-LLL-AFC and Z-LLY-AFC, were consistently the most inhibitory vehicles. The V values of the most inhibitory vehicle series are shown below in Table 2. Again, a clear break between the first and second tier vehicles is discernible for the V value. Table 2. Vehicles and V value rankings.

BALB/c mice = assay: Observation of side effects in treated mice; type: in vivo; conditions: long-term studies
[2] = test system: purified Taenia solium cysteine protease; assay: Substrate cleavage screen of AFC-linked peptides (Step II), purified protease; type: biochemical; conditions: 0.4 M Citrate, pH 4.9, 0.01 M cysteine, 18 h, 37 °C
Method: In this step, the most efficacious substrate for detection of the cysteine protease (high Kcat substrate) was determined in vitro along with those substrates which were not well cleaved (low kcat substrates). From this point forward, the following conditions refer to all assays: "assay buffer" refers to 0.4 M Citrate, pH 4.9 (the pH optima of the protease). Incubation time was 18 hours at 37°C. These conditions were determined by our preliminary data to be best for kinetic evaluation of the protease. […] The experiments were conducted in 6X50 […] Borosilicate mini-culture tubes (Fisher Scientific), and a fluorometer (Turner) was employed for detection of AFC cleavage.
Since the full 8,420 amino acid possibilities for cleavage were not available, representative substrates were employed. […] In order to choose this subset, representative amino acids (i.e., selected from the categories of acidic, basic, nonpolar, uncharged) were chosen so as to create as many categories of motifs as feasible for the P3-P1 positions with a set of 67 small peptides (see lists at Fig. 4a and Fig. 4b). The target cysteine protease from Taenia solium was isolated using the purification methods described previously in the patent WO 00/63350.
Approximately 1 ug (or a proteolytically detectable amount) of the purified target cysteine protease was incubated individually, with 1 ug of each of the available substrates in 500 uL of assay buffer. During this setup, the substrate was pre-incubated in the assay buffer for a short period of time (20 minutes) in order to reach an equilibrated status before the addition of the protease. Cleavage assessments were based upon the property of the protease to cleave synthetic peptide substrates linked at the C-terminus to 7-Amino-4-Trifluoromethyl Coumarin (AFC) as previously described. AFC linked tripeptides, dipeptides, and monopeptides, (with a variety of permutations at P3-P1) were available from Enzyme Systems Products (Livermore, CA), and were used as the source of the subset. Following incubation of enzyme preparations overnight (18 h, 37 °C) with peptide in assay buffer (Citrate, pH 4.9, supplemented with 0.01 M cysteine), free AFC concentrations were measured fluorometrically (excitation 405 nm, emission 505 nm). The proteolytic cleavage released the AFC group, which was measurable as a free molecule by a standard fluorometer and converted into molar quantities, based upon a previously established standard curve. The simplicity of AFC detection by the fluorometer was a key factor which expedited and simplified the procedures.
In the assay, 1 ug of the purified Taenia cysteine protease was added to a saturating amount of Z-Phe-Arg-AFC (4X10^-5 M) in assay buffer. The experiment was conducted in triplicate and repeated at least 5 times until we were certain that variability in AFC cleavage was not statistically significant.
Vmax for the cleavage of substrates by the purified target protease and Vmax for substrates cleaved by the crude mix protease were each calculated using conventional kinetic modeling calculations already described in the art.

Compound	inhibition with the final cocktail (7.4%) [1]	Tier (Taenia solium crude mix)	cleavage of AFC substrate (Vmax) [2]	further results
O=C(N[C@@H](CO)C(=O)N[C@@H](Cc1ccc(O)cc1)C(=O)Nc1ccc2c(C(F)(F)F)cc(=O)oc2c1)OCc1ccccc1 [Z-SY-AFC] (Cbz-Ser-Tyr-{AFC})	less than 20%	2 (The second tier was composed of those vehicles that produced inhibition between 20-50% inhibition when in the presence of the 1.4% cocktail)	–	V Value [1]: 0.09; V Value (Taenia solium crude mix; V = P * M): 0.09
N=C(N)NCCC[C@H](NC(=O)OCc1ccccc1)C(=O)N[C@@H](CCCNC(=N)N)C(=O)Nc1ccc2c(C(F)(F)F)cc(=O)oc2c1 [Z-RR-AFC] (Cbz-Arg-Arg-{AFC})	less than 20%	2 (The second tier was composed of those vehicles that produced inhibition between 20-50% inhibition when in the presence of the 1.4% cocktail)	–	V Value [1]: 0.09
CC(C)CC(NC(=O)OCc1ccccc1)C(=O)NC(C=CS(=O)(=O)c1ccccc1)Cc1ccccc1 (stereo not drawn)	–	–	–	side effects in treated mice (BALB/c mice): goiter and neurological problems
Cbz-Leu-Gly-Arg-{AFC} [Z-LGR-AFC]	less than 20%	–	noncleavable	inhibition with the 1.4% cocktail [1]: greater than 20%
CC(C)[C@H](NC(=O)OC(C)(C)C)C(=O)N1CCC[C@H]1C(=O)N[C@@H](CCCNC(=N)N)C(=O)Nc1ccc2c(C(F)(F)F)cc(=O)oc2c1 [B-VPR-AFC, Boc-Val-Pro-Arg-AFC] (Boc-Val-Pro-Arg-{AFC})	less than 20%	2 (The second tier was composed of those vehicles that produced inhibition between 20-50% inhibition when in the presence of the 1.4% cocktail)	noncleavable	V Value ([1]; listed as B-VPR-AC): 0.120
CC(C)C[C@H](NC(=O)OCc1ccccc1)C(=O)N[C@@H](CCCNC(=N)N)C(=O)N[C@@H](CCCNC(=N)N)C(=O)Nc1ccc2c(C(F)(F)F)cc(=O)oc2c1 [Z-LRR-AFC] (Cbz-Leu-Arg-Arg-{AFC})	–	–	–	inhibition with the 1.4% cocktail [1]: greater than 20%
N[C@@H](CCC(=O)O)C(=O)N[C@@H](Cc1ccc(O)cc1)C(=O)Nc1ccc2c(C(F)(F)F)cc(=O)oc2c1 [EY-AFC] (H-Glu-Tyr-{AFC})	–	–	not cleaved	–
COC(=O)CCC(=O)N[C@@H](Cc1ccccc1)C(=O)N[C@@H](CC(C)C)C(=O)N[C@@H](Cc1ccccc1)C(=O)Nc1ccc2c(C(F)(F)F)cc(=O)oc2c1 [MeoSuc-FLF-AFC] (MeOSuc-Phe-Leu-Phe-{AFC})	–	–	not cleaved	–
